Read-outs that look alike come from different tables or passages of the source.
Assays:
[1] = test system: barnyardgrass (Echinochloa crus-galli); assay: Test A greenhouse herbicide test, pre- and postemergence; format: in vivo; conditions: Echinochloa crus-galli, 240 h, 1000 g ai/ha, 0 to 100 scale
Summary of the method: (§1)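 Seeds sown in loam–sand blend got a preemergence directed soil spray of compound in non-phytotoxic solvent with surfactant. Postemergence treatment was given at 2–10 cm, one- to two-leaf stage. After ~10 d in greenhouse, injury was rated visually vs untreated controls, 0 (no effect) to 100 (complete control).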

corn (Zea mays) = assay: as above; format: in vivo; conditions: Zea mays, 240 h, 1000 g ai/ha, 0 to 100 scale
Summary of the method: as §1

[2] = test system: crabgrass, large (large crabgrass, Digitaria sanguinalis); assay: as above; format: in vivo; conditions: 240 h, 1000 g ai/ha, 0 to 100 scale
Summary of the method: as §1

[3] = test system: foxtail, giant (giant foxtail, Setaria faberii); assay: as above; format: in vivo; conditions: Setaria faberi, 240 h, 1000 g ai/ha, 0 to 100 scale
Summary of the method: as §1

[4] = test system: momingglory (Ipomoea spp.); assay: as above; format: in vivo; conditions: 240 h, 1000 g ai/ha, 0 to 100 scale
Summary of the method: as §1

[5] = test system: pigweed (Amaranthus retroflexus); assay: as above; format: in vivo; conditions: Amaranthus retroflexus, 240 h, 1000 g ai/ha, 0 to 100 scale
Summary of the method: as §1

[6] = test system: velvetleaf (Abutilon theophrasti); assay: as above; format: in vivo; conditions: 240 h, 1000 g ai/ha, 0 to 100 scale
Summary of the method: as §1

[7] = test system: wheat (Triticum aestivum); assay: as above; format: in vivo; conditions: Triticum aestivum, 240 h, 1000 g ai/ha, 0 to 100 scale
Summary of the method: as §1

[8] = test system: barnyardgrass (Echinochloa crus-galli); assay: Test B flooded paddy test; format: in vivo; conditions: Echinochloa crus-galli, 360 h; 250 g ai/ha, Flood; visual rating on scale of 0 to 100 where 0 is no effect and 100 is complete control; 13 to 15 d after treatment; read-out: Plant response rating, Barnyardgrass
Summary of the method: (§2)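 Plants at the 2-leaf stage were flooded to 3 cm above soil, and test compounds were applied directly into the paddy water, which was held at that depth throughout. After 13 to 15 d in a greenhouse, injury was rated visually against untreated controls on a 0–100 scale (0 no effect, 100 complete control).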

[9] = test system: ducksalad (Heteranthera limosa); assay: Test B flooded paddy test; format: in vivo; conditions: Heteranthera limosa, 360 h; 250 g ai/ha, Flood; visual rating on scale of 0 to 100 where 0 is no effect and 100 is complete control; 13 to 15 d after treatment; read-out: Plant response rating, Ducksalad
Summary of the method: as §2

rice (Oryza sativa) = assay: Test B flooded paddy test; format: in vivo; conditions: Oryza sativa, 360 h; 250 g ai/ha, Flood; visual rating on scale of 0 to 100 where 0 is no effect and 100 is complete control; 13 to 15 d after treatment; read-out: Plant response rating, Rice
Summary of the method: as §2

[10] = test system: sedge, umbrella (small-flower umbrella sedge, Cyperus difformis); assay: Test B flooded paddy test; format: in vivo; conditions: Cyperus difformis, 360 h; 250 g ai/ha, Flood; visual rating on scale of 0 to 100 where 0 is no effect and 100 is complete control; 13 to 15 d after treatment; read-out: Plant response rating, Sedge, Umbrella
Summary of the method: as §2

[11] = test system: ALOMY, blackgrass (Alopecurus myosuroides); assay: Test F mixtures with commercial herbicides, Post- or Pre-emergence; format: in vivo; conditions: Post-emergence, scale 0-100
Experimental: (§3) This test evaluated the effect of mixtures of Compound 1 or Compound 2 with various commercial herbicides on multiple plant species. Seeds of multiple plant species selected were planted into Sandy Loam soil and treated either Post-emergence or Pre-emergence with test chemicals formulated in a non-phytotoxic solvent mixture. Plants were grown in a greenhouse using supplemental lighting to maintain a photoperiod of approximately 16 h; daytime and nighttime temperatures were approximately 24-30 and 19-21° C., respectively. Balanced fertilizer was applied through the watering system. Treated plants and controls were maintained in a greenhouse for 20 d, after which time all species were compared to controls and visually evaluated. Plant response ratings summarized in Tables F1 through F4 and are based on a scale of 0 to 100 where 0 is no effect and 100 is complete control. A dash (-) response means no test result. Application rates (i.e. “Rate”) are expressed in grams of active ingredient per hectare (g a.i./ha). In the following tables KCHSC is kochia (Kochia scoparia), LOLMU in Italian Ryegrass (Lolium multiflorum), AMBEL is common ragweed (Ambrosia elatior), ECHCG is barnyardgrass (Echinochloa crus-galli), SETVI is giant foxtail (Setaria faberii), AMARE is redroot pigweed (Amaranthus retroflexus), ALOMY is blackgrass (Alopecurus myosuroides) and GALAP is galium (Galium aparine). “Obsd.” is observed effect. “Exp.” is expected effect calculated from Colby's Equation.
(§4) Colby's Equation was used to determine the herbicidal effects expected from the mixtures. Colby's Equation (Colby, S. R. “Calculating Synergistic and Antagonistic Responses of Herbicide Combinations,” Weeds, 15(1), pp 20-22 (1967)) calculates the expected additive effect of herbicidal mixtures, and for two active ingredients is of the form: Pa+b=Pa+Pb−(PaPb/100)
(§5) wherein Pa+b is the percentage effect of the mixture expected from additive contribution of the individual components:
(§6) Pa is the observed percentage effect of the first active ingredient at the same use rate as in the mixture, and
(§7) Pb is the observed percentage effect of the second active ingredient at the same use rate as in the mixture.

[12] = test system: AMARE, redroot pigweed (Amaranthus retroflexus); assay: as above; format: in vivo
Experimental: as §3, §4, §5, §6, §7

[13] = test system: AMBEL, common ragweed (Ambrosia elatior); assay: as above; format: in vivo
Experimental: as §3, §4, §5, §6, §7

[14] = test system: ECHCG, barnyardgrass (Echinochloa crus-galli); assay: as above; format: in vivo
Experimental: as §3, §4, §5, §6, §7

[15] = test system: GALAP, galium (Galium aparine); assay: as above; format: in vivo; conditions: Post-emergence, scale 0-100
Experimental: as §3, §4, §5, §6, §7

[16] = test system: KCHSC, kochia (Kochia scoparia); assay: as above; format: in vivo
Experimental: as §3, §4, §5, §6, §7

[17] = test system: LOLMU, Italian Ryegrass (Lolium multiflorum); assay: as above; format: in vivo
Experimental: as §3, §4, §5, §6, §7

[18] = test system: SETVI, giant foxtail (Setaria faberii); assay: as above; format: in vivo
Experimental: as §3, §4, §5, §6, §7

[19] = Pre-emergence, Rate 62 g a.i./ha, scale 0-100
[20] = Table F3, Post-emergence, Rate 62 g a.i./ha, scale 0-100
[21] = Post-emergence, Rate 4 g a.i./ha, scale 0-100
[22] = Post-emergence, Rate 16 g a.i./ha, scale 0-100
[23] = Pre-emergence, Rate 4 g a.i./ha, applied alone, 20 d, scale 0 to 100
[24] = Pre-emergence, Rate 16 g a.i./ha, applied alone, 20 d, scale 0 to 100

## Cc1cc(C)c2c(-c3c(O)c(C)nn(C)c3=O)c(C)sc2c1 [Compound 3, 5-hydroxy-2,6-dimethyl-4-(2,4,6-trimethylbenzo[b]thien-3-yl)-3(2H)-pyridazinone]
[1]; post-emergence, Postemergence, 0 is no effect, 100 is complete control, read-out: Barnyardgrass plant response rating
  pest or weed control at 1000 g/ha: 50%
[1]; pre-emergence, Preemergence, 0 no effect, 100 complete control, read-out: Plant response rating, Barnyardgrass
  pest or weed control at 1000 g/ha: 80%
Corn (Zea mays); post-emergence, Postemergence, 0 is no effect, 100 is complete control, read-out: Corn plant response rating
  plant injury at 1000 g/ha: 0%
Corn (Zea mays); pre-emergence, Preemergence, 0 no effect, 100 complete control
  Corn plant response rating (crop injury, 0 = no effect, 100 = complete kill) at 1000 g/ha: 0%
[2]; post-emergence, Postemergence, 0 is no effect, 100 is complete control, read-out: Crabgrass, Large plant response rating
  pest or weed control at 1000 g/ha: 10%
[2]; pre-emergence, Preemergence, 0 no effect, 100 complete control, read-out: Plant response rating, Crabgrass, Large
  pest or weed control at 1000 g/ha: 80%
[3]; post-emergence, Postemergence, 0 is no effect, 100 is complete control, read-out: Foxtail, Giant plant response rating
  pest or weed control at 1000 g/ha: 10%
[3]; pre-emergence, Preemergence, 0 no effect, 100 complete control, read-out: Plant response rating, Foxtail, Giant
  pest or weed control at 1000 g/ha: 60%
[4]; post-emergence, Postemergence, 0 is no effect, 100 is complete control, read-out: Morningglory plant response rating
  pest or weed control at 1000 g/ha: 90%
[4]; pre-emergence, Preemergence, 0 no effect, 100 complete control, read-out: Plant response rating, Morningglory
  pest or weed control at 1000 g/ha: 80%
[5]; post-emergence, Postemergence, 0 is no effect, 100 is complete control, read-out: Pigweed plant response rating
  pest or weed control at 1000 g/ha: 0%
[5]; pre-emergence, Preemergence, 0 no effect, 100 complete control, read-out: Plant response rating, Pigweed
  pest or weed control at 1000 g/ha: 0%
[6]; post-emergence, Postemergence, 0 is no effect, 100 is complete control, read-out: Velvetleaf plant response rating
  pest or weed control at 1000 g/ha: 70%
[6]; pre-emergence, Preemergence, 0 no effect, 100 complete control, read-out: Plant response rating, Velvetleaf
  pest or weed control at 1000 g/ha: 70%
[7]; post-emergence, Postemergence, 0 is no effect, 100 is complete control, read-out: Wheat plant response rating
  plant injury at 1000 g/ha: 0%
[7]; pre-emergence, Preemergence, 0 no effect, 100 complete control, read-out: Plant response rating, Wheat
  plant injury at 1000 g/ha: 0%
[8]
  pest or weed control at 250 g/ha: 0%
[9]
  pest or weed control at 250 g/ha: 20%
Rice (Oryza sativa)
  plant injury at 250 g/ha: 0%
[10]
  pest or weed control at 250 g/ha: 0%
other
  melting point: 224 to 227 °C

## CCNc1nc(Cl)nc(NC(C)C)n1 [atrazine]
[11]; Table F3, Rate 62 g a.i./ha
  ALOMY Obsd.: 60
[12]; [19]
  AMARE Obsd.: 85
[12]; [20]
  AMARE Obsd.: 75
[13]; [19]
  AMBEL Obsd.: 10
[13]; [20]
  AMBEL Obsd.: 10
[14]; [19]
  ECHCG Obsd.: 0
[14]; [20]
  ECHCG Obsd.: 20
[15]; Table F3, Rate 62 g a.i./ha
  GALAP Obsd.: 50
[16]; [19]
  KCHSC Obsd.: 100
[16]; [20]
  KCHSC Obsd.: 100
[17]; [19]
  LOLMU Obsd.: 100
[17]; [20]
  LOLMU Obsd.: 15
[18]; [19]
  SETVI Obsd.: 5
[18]; [20]
  SETVI Obsd.: 5

## CS(=O)(=O)c1ccc(C(=O)C2C(=O)CCCC2=O)c([N+](=O)[O-])c1 [mesotrione]
[11]; Rate 4 g a.i./ha
  ALOMY Obsd.: 0.0
[11]; Rate 16 g a.i./ha
  ALOMY Obsd.: 0.0
[12]; [21]
  AMARE Obsd.: 0.0
[12]; [22]
  AMARE Obsd.: 30.0
[12]; [23]
  AMARE Obsd.: 0
[12]; [24]
  AMARE Obsd.: 20
[13]; [21]
  AMBEL Obsd.: 0.0
[13]; [22]
  AMBEL Obsd.: 75.0
[13]; [23]
  AMBEL Obsd.: 0
[13]; [24]
  AMBEL Obsd.: 30
[14]; [21]
  ECHCG Obsd.: 0.0
[14]; [22]
  ECHCG Obsd.: 20.0
[14]; [23]
  ECHCG Obsd.: 0
[14]; [24]
  ECHCG Obsd.: 0
[15]; Rate 4 g a.i./ha
  GALAP Obsd.: 0.0
[15]; Rate 16 g a.i./ha
  GALAP Obsd.: 35.0
[16]; [21]
  KCHSC Obsd.: 0.0
[16]; [22]
  KCHSC Obsd.: 90.0
[16]; [23]
  KCHSC Obsd.: 0
[16]; [24]
  KCHSC Obsd.: 50
[17]; [21]
  LOLMU Obsd.: 0.0
[17]; [22]
  LOLMU Obsd.: 0.0
[17]; [23]
  LOLMU Obsd.: 0
[17]; [24]
  LOLMU Obsd.: 0
[18]; [21]
  SETVI Obsd.: 0.0
[18]; [22]
  SETVI Obsd.: 0.0
[18]; [23]
  SETVI Obsd.: 0
[18]; [24]
  SETVI Obsd.: 0
